From ChEMBL document CHEMBL1128438, “A priori prediction of activity for HIV-1 protease inhibitors employing energy minimization in the active site” (J Med Chem, 1995)

The compounds below were run against T1, Human immunodeficiency virus type 1 protease (Human immunodeficiency virus 1, UniProt Q72874) (assay: Inhibition of HIV-1 protease was determined in vitro).

IC50	Compound
1.29 nM	CC(C)(C)OC(=O)N[C@@H](Cc1ccccc1)[C@@H](O)/C=C(/Cc1ccccc1)C(=O)N[C@H]1c2ccccc2C[C@H]1O
229 nM	CC(C)(C)OC(=O)N[C@@H](Cc1ccccc1)[C@H](O)CN[C@@H](Cc1ccccc1)C(=O)N[C@H]1c2ccccc2C[C@H]1O
4680 nM	CC(C)(C)OC(=O)CN(Cc1ccccc1)C[C@@H](O)[C@H](Cc1ccccc1)NC(=O)OC(C)(C)C
7.59 nM	CC(C)(C)NC(=O)[C@@H]1C[C@@H]2CCCC[C@@H]2CN1C[C@@H](O)C[C@@H](Cc1ccccc1)C(=O)N[C@H]1c2ccccc2C[C@H]1O
3020 nM	CC(C)(C)NC(=O)[C@@H]1C[C@@H]2CCCC[C@@H]2CN1CC(O)[C@H](Cc1ccccc1)NC(=O)OC(C)(C)C (stereo not given in full)
568 nM	CC(C)(C)OC(=O)N[C@@H](Cc1ccccc1)[C@@H](O)CC(=O)NC1c2ccccc2C[C@H]1O (stereo not given in full)
6760 nM	CC(C)(C)NC(=O)[C@@H]1C[C@@H]2CCCC[C@@H]2CN1CC(O)CN1C[C@H]2CCCC[C@H]2C[C@H]1C(=O)NC(C)(C)C
52.8 nM	CC(C)[C@H](NC(=O)[C@H](Cc1ccccc1)C[C@H](O)CN1C[C@H]2CCCC[C@H]2C[C@H]1C(=O)NC(C)(C)C)C(=O)Nc1ccc2ccccc2n1
0.692 nM	O=C(N[C@H]1c2ccccc2C[C@H]1O)[C@H](Cc1ccccc1)CC(O)C[C@@H](Cc1ccccc1)C(=O)N[C@H]1c2ccccc2C[C@H]1O
1270 nM	CC(C)(C)OC(=O)N[C@@H](Cc1ccccc1)[C@@H](O)C[C@]1(Cc2ccccc2)CCCN([C@H]2c3ccccc3C[C@H]2O)C1=O
1370 nM	CC(C)(C)OC(=O)N[C@@H](Cc1ccccc1)[C@@H](O)[C@H](O)[C@H](Cc1ccccc1)NC(=O)OC(C)(C)C
589 nM	CC(C)(C)OC(=O)N[C@@H](Cc1ccc(O)cc1)[C@@H](O)[C@@H]1CCC[C@H]1C(=O)NCc1ccccc1

The compounds below were run against T1, Human immunodeficiency virus type 1 protease (assay: In vitro inhibition of HIV-1 protease).

IC50	Compound
122 nM	CC(C)(C)OC(=O)N[C@@H](Cc1ccccc1)[C@@H](O)C[C@@H](Cc1ccccc1)C(=O)N[C@H]1CCCC[C@H]1O
27.5 nM	C=CC[C@H](C[C@H](O)[C@H](Cc1ccccc1)NC(=O)OC(C)(C)C)C(=O)N[C@H]1c2ccccc2C[C@H]1O
38.6 nM	CC(C)(C)OC(=O)N[C@@H](Cc1ccccc1)[C@@H](O)C[C@@H](Cc1ccccc1)C(=O)N[C@H](CO)c1ccccc1
9.53 nM	CC(C)(C)OC(=O)N[C@@H](Cc1ccccc1)[C@@H](O)C[C@@H](Cc1ccccc1)C(=O)N[C@H]1C=CC[C@H]1O
5.42 nM	CC(C)(C)OC(=O)N[C@@H](Cc1ccccc1)[C@@H](O)C[C@@H](CC(=O)c1ccccc1)C(=O)N[C@H]1c2ccccc2C[C@H]1O
0.25 nM	CC(C)(C)OC(=O)N[C@@H](Cc1ccccc1)[C@@H](O)C[C@@H](CSc1ccccc1)C(=O)N[C@H]1c2ccccc2C[C@H]1O
66.3 nM	COC(=O)[C@@H]1Cc2ccccc2[C@@H]1NC(=O)[C@H](Cc1ccccc1)C[C@H](O)[C@H](Cc1ccccc1)NC(=O)OC(C)(C)C
0.19 nM	CC(C)(C)OC(=O)N[C@@H](Cc1ccccc1)[C@@H](O)C[C@@H](CCCc1ccccc1)C(=O)N[C@H]1c2ccccc2[C@@H](O)[C@H]1O
0.7 nM	CC(C)(C)OC(=O)N[C@@H](Cc1ccccc1)[C@@H](O)C[C@@H](Cc1ccccc1)C(=O)N[C@H]1c2ccccc2CC[C@H]1O
2930 nM	CC(C)(C)OC(=O)N[C@@H](Cc1ccccc1)[C@@H](O)CCC(=O)N[C@H]1c2ccccc2C[C@H]1O
146 nM	C[C@@H](NC(=O)[C@H](Cc1ccccc1)C[C@H](O)[C@H](Cc1ccccc1)NC(=O)OC(C)(C)C)C1CCCCC1
0.17 nM	CC(C)(C)OC(=O)N[C@@H](Cc1ccccc1)[C@@H](O)C[C@@H](Cc1ccc(C(C)(C)C)cc1)C(=O)N[C@H]1c2ccccc2C[C@H]1O
7.7 nM	CC(C)(C)OC(=O)N[C@@H](Cc1ccccc1)[C@@H](O)C[C@@](C)(Cc1ccccc1)C(=O)N[C@H]1c2ccccc2C[C@H]1O
40.5 nM	CC(C)(C)OC(=O)N[C@@H](Cc1ccccc1)[C@@H](O)C[C@@H](Cc1ccccc1)C(=O)N[C@@H]1c2ccccc2OC[C@@H]1O
690 nM	CC(C)(C)OC(=O)N[C@@H](Cc1ccccc1)[C@@H](O)C[C@@H](Cc1ccccc1)C(=O)N[C@H](CO)Cc1ccccc1
161 nM	CC(C)[C@H](NC(=O)[C@H](Cc1ccccc1)C[C@H](O)[C@H](Cc1ccccc1)NC(=O)OC(C)(C)C)C(=O)O
34.2 nM	CC(C)(C)OC(=O)N[C@@H](Cc1ccccc1)[C@@H](O)C[C@@H](Cc1ccccc1)C(=O)N[C@@H]1CCc2ccccc21
30000 nM	CC(C)(C)OC(=O)N[C@@H](Cc1ccccc1)[C@@H](O)C[C@@H](Cc1ccccc1)C(=O)NCC1CCCCC1
0.18 nM	CC(C)(C)OC(=O)N[C@@H](Cc1ccccc1)[C@@H](O)C[C@@H](Cc1ccccc1)C(=O)N[C@H]1c2ccccc2OC[C@H]1O
114 nM	CC(C)(C)OC(=O)N[C@@H](Cc1ccccc1)[C@@H](O)C[C@@H](Cc1ccccc1)C(=O)NCc1ccccc1
0.53 nM	CC(C)(C)OC(=O)N[C@@H](Cc1ccccc1)[C@@H](O)C[C@@H](Cc1ccncc1)C(=O)N[C@H]1c2ccccc2C[C@H]1O
212 nM	CC(C)(C)OC(=O)N[C@@H](Cc1ccccc1)[C@@H](O)C[C@@H](Cc1ccccc1)C(=O)N[C@@]1(C)c2ccccc2C[C@H]1O

Compound	IC50
CC(C)(C)OC(=O)N[C@@H](Cc1ccccc1)[C@@H](O)C[C@@H](Cc1ccccc1)C(=O)N[C@H]1c2ccccc2C[C@H]1O	0.25 nM
